# According to patent US20220257541A1, “Lacosamide for the Treatment of ADD/ADHD” (priority 2019, published 2022):
# How the values were obtained:
# [1] = tested on: children and adolescents with ADHD syndrome; assay: Case Study 3: pedagogical evaluation (literary and mathematical skills); assay type: in vivo, human
# Protocol: In order to evaluate the academic level of the patients and later evolution while being treated, we established indicators of literary and mathematical skills of the patients in line with the official assessment of the Ministry of Education of the Dominican Republic.
# Academic evolution was assessed 90 days after initiating the treatment and at the end of the 6th month.
# In order to measure academic evolution we used different parameters, which are: Spanish language, Reading, Writing, Comprehension of their own reading, Mathematics, Reasoning, argumentation capacities and Problem solving.
# Independently, we established at each evaluation the attained level of alphabetisation and the acquisition of literary skills every patient had, as shown in Table 3.
# We categorised the sample following the protocol of the local Ministry of Education's Evaluation tool, which will qualify students following the consideration of “Non Acquired”, “Towards Acquisition” or “Acquired” levels.
# [2] = tested on: voltage-gated sodium channels; settings: cited from earlier work
# [3] = tested on: children and adolescents with ADHD syndrome; assay: Case Study 3: Tutors evaluation pre to post treatment (DSM-V questionnaire); assay type: in vivo, human
# Protocol: The Tutors Pre-Post Evaluation (self-administrated) was performed at the end of the study. This assessment required the person responsible for the patient's everyday life and care to evaluate the progression through the period of the study, including intellectual and behavioural changes.
# The tutors have evaluated the patients using the DSM-V questionnaire, which is typically used as a standard to classify mental disorders by mental health professionals in the United States.
# [4] = tested on: children and adolescents with ADHD syndrome; assay: Case Study 3: Test of Nonverbal Intelligence (TONI-2); assay type: in vivo, human
# Protocol: (§1) These tests offered an objective element that contributed to the establishment of the diagnosis.
# (§2) Neuropsychological evaluation was repeated after six months on medication, at the end of the study. These evaluations were guided by trained neuropsychologists. Four different evaluations were conducted: Continuous Performance Test (CPT)1, STROOP-P test, Wisconsin Card sorting Test and the Non Verbal Intelligence Test.
# The patients were assessed using the Test of Nonverbal Intelligence (TONI-2), which is a language-free measure of abstract problem-solving ability.
# [5] = tested on: children and adolescents with ADHD syndrome; assay: Case Study 3: neuropsychological results analysis (executive function, attention); assay type: in vivo, human; settings: after six months on medication
# Protocol: as §2
# We measured pedagogical values and characteristics of the executive function (Reasoning, Cognitive Flexibility, Attentional function, Intellectual Quotient, impulse inhibition, Perseveration resistance) throughout the course of the treatment with lacosamide.
# [6] = tested on: potassium or calcium currents; settings: cited from earlier work
# [7] = tested on: children and adolescents with ADHD syndrome; assay: Case Study 3: IQ test prior to and after treatment; assay type: in vivo, human; settings: for IQ: Post-treatment, patient
# Protocol: IQ was tested prior to and after treatment.
# [8] = tested on: children and adolescents with ADHD syndrome; assay: Case Study 3: Wisconsin Card Sorting Test (WCST) Reasoning; assay type: in vivo, human; settings: second evaluation
# Protocol: as §1, §2
# (§3) The patients were assessed using the Wisconsin Card Sorting Test (WCST), which is used to measure higher-level cognitive processes, such as attention, perseverance, abstract thinking, and set shifting. It is particularly used in clinical fields to measure perseverative behaviours that refer to an individual's insistence on wrong behaviour.
# [9] = tested on: children and adolescents with ADHD syndrome; assay: Case Study 3: adverse reactions or side effects; assay type: in vivo, human; settings: all 12 patients, 6 months
# Excerpt: To formalise the control of the treatment, a tool was designed, allowing to record all administrated doses to participants on a daily basis, including any occurrence or increase of adverse reactions or side effects.
# [10] = tested on: children and adolescents with ADHD syndrome; assay: Case Study 3: Wisconsin Card Sorting Test (WCST) Flexibility; assay type: in vivo, human
# Protocol: as §1, §2, §3
# [11] = tested on: reuptake of norepinephrine, dopamine, and serotonin; settings: cited from earlier work
# [12] = tested on: patient suffering from ADHD; assay: Case Study 2: lacosamide mono-therapy in a person with ADHD; assay type: in vivo, human; settings: mono-therapy for several weeks
# Protocol: We conducted a second case study to validate earlier results of Case Study 1. The patient was a person suffering from ADHD (with no comorbidity such as epilepsy or bipolar disorder). The patient was treated with a lacosamide mono-therapy for several weeks based on the conventional treatment regime for lacosamide (for the treatment of epilepsy and/or bipolar disorder) for subjects weighting 50 kg or more.
# [13] = end of the study, 17% prior to treatment
smiles,measurement,setting,value
"COC[C@@H](NC(C)=O)C(=O)NCc1ccccc1 [lacosamide, (2R)-2-(acetylamino)-N-benzyl-3-methoxypropanamide]","pedagogic evaluation, all tested competencies","[1]; 6-month treatment, tests pre-treatment, after 3 and 6 months",gradual progression
same,patients who completely acquired Reasoning and Solving Problems (Mathematics),"[1]; after 3 months of treatment, initial 25%",50%
same,"subjects at the intermediate level, Towards Acquisition",[1]; end of the study,25%
same,change in patients who acquired the reading and writing skills,[1]; end of the study versus first evaluation,+60%
same,patients able to understand what they were reading (Comprehensive Reading),[1]; [13],83%
same,patients who completely acquired the reading and writing skills,[1]; [13],75%
same,"subjects at the non-acquired level (Read, Write, Comprehensive Reading)","[1]; end of the study, 83% prior to treatment",0%
same,proportion of the sample Alphabetised (alphabetical level),"[1]; maintained until the end of the study, 25% at the beginning",75%
same,fast inactivation of voltage-gated sodium channels,[2],without affecting
same,slow inactivation of voltage-gated sodium channels,[2],enhances
same,"behaviour, tutors' DSM-V questionnaire",[3],significantly improved across all tested elements
same,non-verbal reasoning: number of subjects who reached the high average level,[4]; after six months on medication,doubling
same,patients scoring high average in TONI-2,"[4]; end of the tested period, from 16.7%",33.3%
same,patients scoring average in TONI-2,"[4]; end of the tested period, from 50%",58.3%
same,"Visual Attention, Perseveration Resistance and Impulse Inhibition",[5],did not show the expected improvement
same,indicator Attentional Difficulty,[5],improvement
same,variables of distraction and impulsivity,[5],no impact
same,block of potassium or calcium currents,[6],does not block
same,patients who maintained previous IQ levels,[7]; 12 patients tested,23%
same,patients who raised their IQ values,[7]; 12 patients tested,77%
same,patients with a lowering of the IQ value,[7]; 12 patients tested,In none of the patients
same,IQ,"[7]; 2nd High School, Pre-treatment CI-80",CI-90
same,IQ,"[7]; 2nd High School, Pre-treatment CI-99",CI-112
same,IQ,"[7]; 2nd Primary, Pre-treatment CI-94",CI-106
same,IQ,"[7]; 3rd Primary, Pre-treatment CI-82",CI-82
same,IQ,"[7]; 3rd Primary, Pre-treatment CI-117",CI-117
same,IQ,"[7]; 5th Primary, Pre-treatment CI-81",CI-91
same,IQ,"[7]; 5th Primary, Pre-treatment CI-91",CI-95
same,IQ,"[7]; 5th Primary, Pre-treatment CI-95",CI-104
same,IQ,"[7]; 5th Primary, Pre-treatment CI-111",CI-111
same,IQ,"[7]; 6th Primary, Pre-treatment CI-93",CI-95
same,IQ,"[7]; 7th Primary, Pre-treatment CI-87",CI-91
same,IQ,"[7]; Bachelor, Pre-treatment CI-108",CI-114
same,IQ progression on average,[7]; subgroup of 33% of the patients,four
same,IQ progression average,[7]; subgroup of 40% of the patients,around 11±2 points
same,patients in the subgroup with the smaller IQ progression,[7]; subgroup that progressed on average by four points,33%
same,patients in the subgroup with the larger IQ progression,[7]; subgroup with progression average of around 11±2 points,40%
same,global IQ increase,[7]; sum for 12 patients tested,60 points
same,"patients in Severe Deterioration category, WCST Reasoning",[8]; 50% in the first evaluation,25%
same,"patients in the 3 highest categories, WCST Reasoning",[8]; from 41.7%,58.3%
same,side effects,[9],without substantial side effects
same,cognitive flexibility,[10]; after six months on medication,improving
same,"patients with Average and High Average scores, WCST Flexibility","[10]; second evaluation, 25% in the first evaluation",50%
same,"patients in the lowest two categories (Mild and Severe Deterioration), WCST Flexibility","[10]; second evaluation, 41.7% in the first evaluation",16.6%
same,"modulation of reuptake of norepinephrine, dopamine, and serotonin",[11],does not modulate
same,ADHD symptomatology,[12],slowly regressed
same,cognitive functionality,[12],significant improvement
